Measurements published in patent US7868204B2, “Inhibitors of histone deacetylase” (MethylGene Inc., priority 2001, dated 2011).
Where two headings read alike, the source gives them in different places. One block for each compound: values may come before it.

Experiments:
[1] = biological target: T1, cloned recombinant human HDAC-1 (Homo sapiens, UniProt Q13547); experiment: Human HDAC-1 enzyme inhibition, Assay 1 ([3H]-acetylated histone substrate, scintillation counting); type: biochemical
T1 construct: made in house; host or cells: Baculovirus insect cell expression system
T1 sequence (Q13547 whole entry): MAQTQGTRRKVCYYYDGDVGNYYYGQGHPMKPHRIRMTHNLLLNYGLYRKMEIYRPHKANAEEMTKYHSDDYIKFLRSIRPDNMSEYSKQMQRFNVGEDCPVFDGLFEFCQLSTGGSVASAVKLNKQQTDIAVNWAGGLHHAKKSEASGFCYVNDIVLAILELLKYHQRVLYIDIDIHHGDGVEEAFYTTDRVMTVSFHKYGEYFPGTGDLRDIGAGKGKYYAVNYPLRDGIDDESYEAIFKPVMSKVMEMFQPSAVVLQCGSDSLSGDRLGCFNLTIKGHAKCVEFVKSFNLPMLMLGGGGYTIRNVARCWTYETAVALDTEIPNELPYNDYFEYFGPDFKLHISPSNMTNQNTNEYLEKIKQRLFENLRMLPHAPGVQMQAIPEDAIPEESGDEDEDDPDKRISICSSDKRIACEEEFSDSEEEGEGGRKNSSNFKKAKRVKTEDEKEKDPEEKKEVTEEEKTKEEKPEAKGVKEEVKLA
Protocol: Assay 1. HDAC inhibitors were screened against a cloned recombinant human HDAC-1 enzyme expressed and purified from a Baculovirus insect cell expression system. […] The mixture was extracted with ethyl acetate and the released [^3H]-acetic acid was quantified by scintillation counting. For inhibition studies, the enzyme was preincubated with compounds at 4° C. for 30 minutes prior to initiation of the enzymatic assay. IC50 values for HDAC enzyme inhibitors were determined by performing dose response curves with individual compounds and determining the concentration of inhibitor producing fifty percent of the maximal inhibition.

HCT116 cells = experiment: MTT assay; type: cell-based; details: Homo sapiens, HCT116 cells, 72 hours
Protocol: HCT116 cells (2000/well) were plated into 96-well tissue culture plates one day before compound treatment. Compounds at various concentrations were added to the cells. The cells were incubated for 72 hours at 37° C. in 5% CO2 incubator. MTT (3-[4,5-dimethylthiazol-2-yl]-2,5 diphenyl tetrazolium bromide, Sigma) was added at a final concentration of 0.5 mg/ml and incubated with the cells for 4 hours before one volume of solubilization buffer (50% N,N-dimethylformamide, 20% SDS, pH 4.7) was added onto the cultured cells. […] OD values were converted to cell numbers according to a standard growth curve of the relevant cell line.

[2] = Table 5a, read-out: Human HDAC-1 IC50
[3] = Table 5c, read-out: Human HDAC-1 IC50
[4] = Table 5E, read-out: Human HDAC-1 IC50
[5] = Table 5F, read-out: Human HDAC-1 IC50
[6] = Table 5b, read-out: Human HDAC-1 IC50

- IC50 [1, 2]: 0.5 µM
- IC50 (HCT116 cells; HCT-116, 72 h, Table 5a): 2 µM
SMILES: Nc1ccccc1NC(=O)c1ccc(CNc2nc(N3CCCCC3)nc(N3CCCCC3)n2)cc1 [Cpd 26, N-(2-Amino-phenyl)-4-[(4,6-di-piperidin-1-yl-[1,3,5]triazin-2-ylamino)-methyl]-benzamide]

- IC50 [1, 2]: 0.4 µM
- IC50 (HCT116 cells; HCT-116, 72 h, Table 5a): 2 µM
SMILES: Nc1ccccc1NC(=O)c1ccc(CNc2nc(NCCc3ccccc3)nc(NC3Cc4ccccc4C3)n2)cc1 [Cpd 27]

- IC50 [1, 3]: 22 µM
- IC50 (HCT116 cells; HCT-116, 72 h, Table 5c): 4 µM
SMILES: COc1ccc(CNc2cccc(/C=C/C(=O)Nc3ccccc3N)n2)cc1 [Cpd 51, N-(2-aminophenyl)-3-[6-(4-methoxy-benzylamino)-pyridin-2-yl]-acrylamide]

- IC50 [1, 3]: 12 µM
- IC50 (HCT116 cells; HCT-116, 72 h, Table 5c): 22 µM
SMILES: COc1cc(CNCc2ccc(/C=C/C(=O)Nc3ccccc3N)cc2)cc(OC)c1OC [Cpd 59, N-(2-aminophenyl)-3-{4-[(3,4,5-trimethoxy-benzylamino)-methyl]-phenyl}-acrylamide]

- IC50 [1, 3]: 7 µM
- IC50 (HCT116 cells; HCT-116, 72 h, Table 5c): 12 µM
SMILES: COc1ccc(CNc2ccc(/C=C(\C)C(=O)Nc3ccccc3N)cn2)cc1 [Cpd 61b, N-(2-aminophenyl)-3-[6-(4-methoxy-benzylamino)-pyridin-3-yl]-2-methyl-acrylamide]

- IC50 (HCT116 cells; HCT-116, 72 h, Table 5c): 37 µM
SMILES: COc1ccc(CNc2ccc(/C=C/C(=O)Nc3ccccc3N)cc2)cc1 [Cpd 65, N-(2-aminophenyl)-3-{4-(4-methoxy-benzylamino)-phenyl}-acrylamide]

- IC50 [1, 3]: 10 µM
- IC50 (HCT116 cells; HCT-116, 72 h, Table 5c): 44 µM
SMILES: Nc1ccccc1NC(=O)/C=C/c1ccc(NC/C=C/c2ccccc2)cc1 [Cpd 71]

- IC50 [1, 3]: 16 µM
- IC50 (HCT116 cells; HCT-116, 72 h, Table 5c): 21 µM
SMILES: COc1ccc(C(=O)Nc2ccc(/C=C/C(=O)Nc3ccccc3N)cc2)cc1 [Cpd 72, N-(4-[2-(2-Amino-phenylcarbamoyl)-vinyl]-phenyl}-4-methoxy-benzamide]

- IC50 (HCT116 cells; HCT-116, 72 h, Table 5c): > 39 µM
SMILES: COc1ccc(CNc2ccc3cc(/C=C/C(=O)Nc4ccccc4N)ccc3n2)cc1 [Cpd 88, N-(2-aminophenyl)-3-[2-(4-methoxy-benzylamino)-quinolin-6-yl]-acrylamide]

- IC50 [1, 3]: 10 µM
- IC50 (HCT116 cells; HCT-116, 72 h, Table 5c): 12 µM
SMILES: Nc1ccccc1NC(=O)/C=C/c1ccc(NCCCn2ccnc2)nc1 [Cpd 97, N-(2-aminophenyl)-3-[6-(3-imidazol-1-yl-propylamino)-pyridin-3-yl]-acrylamide]

- IC50 [1, 3]: 20 µM
- IC50 (HCT116 cells; HCT-116, 72 h, Table 5c): 6 µM
SMILES: NCc1cccc(CNc2ccc(/C=C/C(=O)Nc3ccccc3N)cn2)c1 [Cpd 102, 3-[6-(3-aminomethyl-benzylamino)-pyridin-3-yl]-N-(2-aminophenyl)-acrylamide]

- IC50 [1, 3]: 16 µM
- IC50 (HCT116 cells; HCT-116, 72 h, Table 5c): 14 µM
SMILES: Nc1ccccc1NC(=O)/C=C/c1ccc(CCNC(=O)OCc2cccnc2)cc1 [Cpd 105]

- IC50 [1, 3]: 15 µM
- IC50 (HCT116 cells; HCT-116, 72 h, Table 5c): 17 µM
SMILES: COc1cc(CN(C)Cc2ccc(/C=C/C(=O)Nc3ccccc3N)cc2)cc(OC)c1OC [Cpd 107]

- IC50 [1, 3]: 3 µM
SMILES: Nc1ccccc1NC(=O)/C=C/c1ccc(CSc2ccc3ccccc3n2)cc1 [Cpd 110, N-(2-Amino-phenyl)-3-[4-(quinolin-2-ylsulfanylmethyl)-phenyl]-acrylamide]

- IC50 [1, 3]: 10 µM
- IC50 (HCT116 cells; HCT-116, 72 h, Table 5c): 2 µM
SMILES: Nc1ccccc1NC(=O)/C=C/c1ccc(NCc2cccnc2)cc1 [Cpd 111, N-(2-amino-phenyl)-3-{4-[(pyridin-3-ylmethyl)-amino]-phenyl}-acrylamide]

- IC50 [1, 3]: 25 µM
- IC50 (HCT116 cells; HCT-116, 72 h, Table 5c): 0.5 µM
SMILES: COc1ccc(C(=O)Nc2ccc(/C=C/C(=O)Nc3ccccc3N)cn2)cc1 [Cpd 114]

- IC50 [1, 3]: 15 µM
- IC50 (HCT116 cells; HCT-116, 72 h, Table 5c): 9 µM
SMILES: Nc1ccc(CNc2ncc(/C=C/C(=O)Nc3ccccc3N)cn2)cc1 [Cpd 115, 3-[2-(4-amino-benzylamino)-pyrimidin-5-yl]-N-(2-amino-phenyl)-acrylamide]

- IC50 [1, 3]: 7 µM
- IC50 (HCT116 cells; HCT-116, 72 h, Table 5c): 3 µM
SMILES: Cc1ccc(CNc2ccc(/C=C/C(=O)Nc3ccccc3N)cn2)cc1 [Cpd 117, N-(2-Amino-phenyl)-3-[6-(4-methyl-benzylamino)-pyridin-3-yl]-acrylamide]

- IC50 [1, 3]: 11 µM
- IC50 (HCT116 cells; HCT-116, 72 h, Table 5c): 8 µM
SMILES: COc1ccc(CNc2ncc(/C=C/C(=O)Nc3ccccc3N)cn2)cc1 [Cpd 118, N-(2-amino-phenyl)-3-[2(4-methoxy-benzylamino)-pyrimidin-5-yl]-acrylamide]

- IC50 [1, 4]: 7 µM
- IC50 (HCT116 cells; HCT-116, 72 h, Table 5E): 10 µM
SMILES: COc1cccc(-c2ccc(C(=O)Nc3ccccc3N)cn2)c1 [Cpd 141, N-(2-Amino-phenyl)-6-(3-methoxyphenyl)-nicotinamide]

- IC50 [1, 4]: 0.3 µM
- IC50 (HCT116 cells; HCT-116, 72 h, Table 5E): 11 µM
SMILES: Nc1ccccc1NC(=O)c1ccc(CCN2C(=O)c3ccccc3C2=O)cc1 [Cpd 152, N-(2-Amino-phenyl)-4-[2-(1,3-dioxo-1,3-dihydro-isoindol-2-yl)-ethyl]-benzamide]

- IC50 [1, 5]: 4 µM
- IC50 (HCT116 cells; HCT-116, 72 h, Table 5F): 16 µM
SMILES: C=C(C)C#Cc1ccc(C(=O)Nc2ccccc2N)cc1 [Cpd 193]

- IC50 [1, 5]: 3 µM
SMILES: COc1cc(-c2ccc3sc(NCc4ccc(C(=O)Nc5ccccc5N)cc4)nc3c2)cc(OC)c1OC [Cpd 194]

- IC50 [1, 5]: 7 µM
- IC50 (HCT116 cells; HCT-116, 72 h, Table 5F): 9 µM
SMILES: CC(C)(O)C#Cc1ccc(C(=O)Nc2ccccc2N)cc1 [Cpd 195]

- IC50 [1, 5]: 4 µM
- IC50 (HCT116 cells; HCT-116, 72 h, Table 5F): 3 µM
SMILES: Nc1ccccc1NC(=O)c1ccc(C#Cc2ccccc2)cc1 [Cpd 196]

SMILES: C[Si](C)(C)C#Cc1ccc(C(=N)Nc2ccccc2N)cc1 [Cpd 198]
- IC50 [1, 5]: 24 µM
- IC50 (HCT116 cells; HCT-116, Table 5F): 14 µM

- IC50 [1, 5]: 11 µM
- IC50 (HCT116 cells; HCT-116, 72 h, Table 5F): 5 µM
SMILES: Nc1ccccc1NC(=O)c1ccc(C#CC(c2ccc(Cl)cc2)N2CCOCC2)cc1 (stereo not shown) [Cpd 201]

- IC50 [1, 6]: 0.1 µM
- IC50 (HCT116 cells; HCT-116, 72 h, Table 5b): 0.5 µM
SMILES: Cc1nc(NCc2ccc(C(=O)Nc3ccccc3N)cc2)nc(NC2Cc3ccccc3C2)n1 [Cpd 218]

- IC50 [1, 6]: 7 µM
- IC50 (HCT116 cells; HCT-116, 72 h, Table 5b): 6 µM
SMILES: Nc1nc(N)nc(/C=C/c2ccc(C(=O)Nc3ccccc3N)cc2)n1 [Cpd 220]

- IC50 [1, 6]: 11 µM
- IC50 (HCT116 cells; HCT-116, 72 h, Table 5b): 2 µM
SMILES: Nc1nc(/C=C/c2ccc(C(=O)Nc3ccccc3N)cc2)nc(N2CCCCC2)n1 [Cpd 223]

- IC50 [1, 6]: 5 µM
- IC50 (HCT116 cells; HCT-116, 72 h, Table 5b): 3 µM
SMILES: Nc1nc(CCc2ccc(C(=O)Nc3ccccc3N)cc2)nc(N2CCCCC2)n1 [Cpd 224]

- IC50 [1, 5]: 5 µM
- IC50 (HCT116 cells; HCT-116, 72 h, Table 5F): 6 µM
SMILES: Nc1ccccc1NC(=O)c1ccc(CSc2nc3cc(OCCN4CCOCC4)ccc3[nH]2)cc1 [Cpd 236]

- IC50 [1, 5]: 3 µM
- IC50 (HCT116 cells; HCT-116, 72 h, Table 5F): 6 µM
SMILES: Nc1ccccc1NC(=O)c1ccc(N2CCOCC2)cc1 [Cpd 238]

- IC50 [1, 5]: 1.8 µM
- IC50 (HCT116 cells; HCT-116, 72 h, Table 5F): 10 µM
SMILES: N#C/N=C(\NCc1ccc(C(=O)Nc2ccccc2N)cc1)Nc1ccncc1 [Cpd 240]

- IC50 [1, 5]: 17 µM
- IC50 (HCT116 cells; HCT-116, 72 h, Table 5F): 10 µM
SMILES: Nc1ccccc1NC(=O)c1ccc(CN2CCOCC2)cc1 [Cpd 328]

- IC50 [1, 5]: 4 µM
- IC50 (HCT116 cells; HCT-116, 72 h, Table 5F): 10 µM
SMILES: Nc1nc(NCc2ccc(C(=O)Nc3ccccc3N)cc2)c2nc[nH]c2n1 [Cpd 331, N-(2-Amino-phenyl)-4-[(2-amino-9H-purin-6-ylamino)-methyl]-benzamide]

- IC50 [1, 5]: 4 µM
- IC50 (HCT116 cells; HCT-116, 72 h, Table 5F): 3 µM
SMILES: Nc1ccccc1NC(=O)c1ccc(Cn2cnc3cc(F)c(F)cc3c2=O)cc1 [Cpd 339, N-(2-Amino-phenyl)-4-(6,7-difluoro-4-oxo-4H-quinazolin-3-ylmethyl)-benzamide]

- IC50 (HCT116 cells; HCT-116, 72 h, Table 5F): 37 µM
SMILES: COc1ccc(NCc2ccc(C(=O)Nc3cc(C(F)(F)F)ccc3N)cc2)cc1OC [Cpd 453, N-(2-Amino-5-trifluoromethyl-phenyl)-4-[(3,4-dimethoxy-phenylamino)-methyl]-benzamide]

- IC50 [1, 5]: 2 µM
SMILES: Nc1ccccc1NC(=O)c1ccc(-c2ccc(CNC3Cc4ccccc4C3)s2)cc1 [Cpd 465]

- IC50 [1, 6]: 4 µM
SMILES: Cc1nc(NCCc2ccccc2)nc(NCc2ccc(C(=O)Nc3ccccc3N)cc2)n1 [Cpd 483, N-(2-amino-phenyl)-4-[(6-methyl-4-phenethylamino-[1,3,5]triazin-2-yl-amino)-methyl]-benzamide]

- IC50 ([1]; Table 5d, read-out: HDAC-1 IC50): > 25 µM
SMILES: COc1cc2c(cc1OC)CN(c1ccc(/C=C/C(=O)Nc3ccccc3N)cc1)CC2 [Cpd 498, N-(2-Amino-phenyl)-3-[4-(6,7-dimethoxy-3,4-dihydro-1H-isoquinolin-2-yl)-phenyl]-acrylamide]

- IC50 (HCT116 cells; HCT-116, Table 5d): 10 µM
SMILES: COc1cccc(NCc2ccc(/C=C/C(=O)Nc3ccccc3N)cc2)c1 [Cpd 507, N-(2-Amino-phenyl)-3-{4-[(3-methoxy-phenylamino)-methyl]-phenyl}-acrylamide]

- IC50 (HCT116 cells; HCT-116, Table 5d): 11 µM
SMILES: COc1ccccc1NCc1ccc(/C=C/C(=O)Nc2ccccc2N)cc1 [Cpd 508, N-(2-Amino-phenyl)-3-{4-[(2-methoxy-phenylamino)-methyl]-phenyl}-acrylamide]

- IC50 (HCT116 cells; HCT-116, Table 5d): 11 µM
SMILES: Nc1ccccc1NC(=O)/C=C/c1ccc(CNc2ccccc2)cc1 [Cpd 509, N-(2-Amino-phenyl)-3-(4-phenylaminomethyl-phenyl)-acrylamide]

- IC50 (HCT116 cells; HCT-116, Table 5d): 6 µM
SMILES: Nc1ccccc1NC(=O)/C=C/c1ccc2c(c1)-c1ccccc1C2 [Cpd 519]

- IC50 (HCT116 cells; HCT-116, Table 5d): 12 µM
SMILES: COc1ccc(NCc2ccc(/C=C/C(=O)Nc3ccccc3N)cc2)cc1 [Cpd 541, N-(2-Amino-phenyl)-3-{4-[(4-methoxy-phenylamino)-methyl]-phenyl}-acrylamide]
